Data published in ChEMBL document CHEMBL4334490, “Natural products as important tyrosine kinase inhibitors” (Eur J Med Chem, 2019).

The molecules below were run against Epidermal growth factor receptor (Homo sapiens, UniProt P00533) (assay: Inhibition of EGFR (unknown origin)).
Sequence of Epidermal growth factor receptor (P00533 whole entry): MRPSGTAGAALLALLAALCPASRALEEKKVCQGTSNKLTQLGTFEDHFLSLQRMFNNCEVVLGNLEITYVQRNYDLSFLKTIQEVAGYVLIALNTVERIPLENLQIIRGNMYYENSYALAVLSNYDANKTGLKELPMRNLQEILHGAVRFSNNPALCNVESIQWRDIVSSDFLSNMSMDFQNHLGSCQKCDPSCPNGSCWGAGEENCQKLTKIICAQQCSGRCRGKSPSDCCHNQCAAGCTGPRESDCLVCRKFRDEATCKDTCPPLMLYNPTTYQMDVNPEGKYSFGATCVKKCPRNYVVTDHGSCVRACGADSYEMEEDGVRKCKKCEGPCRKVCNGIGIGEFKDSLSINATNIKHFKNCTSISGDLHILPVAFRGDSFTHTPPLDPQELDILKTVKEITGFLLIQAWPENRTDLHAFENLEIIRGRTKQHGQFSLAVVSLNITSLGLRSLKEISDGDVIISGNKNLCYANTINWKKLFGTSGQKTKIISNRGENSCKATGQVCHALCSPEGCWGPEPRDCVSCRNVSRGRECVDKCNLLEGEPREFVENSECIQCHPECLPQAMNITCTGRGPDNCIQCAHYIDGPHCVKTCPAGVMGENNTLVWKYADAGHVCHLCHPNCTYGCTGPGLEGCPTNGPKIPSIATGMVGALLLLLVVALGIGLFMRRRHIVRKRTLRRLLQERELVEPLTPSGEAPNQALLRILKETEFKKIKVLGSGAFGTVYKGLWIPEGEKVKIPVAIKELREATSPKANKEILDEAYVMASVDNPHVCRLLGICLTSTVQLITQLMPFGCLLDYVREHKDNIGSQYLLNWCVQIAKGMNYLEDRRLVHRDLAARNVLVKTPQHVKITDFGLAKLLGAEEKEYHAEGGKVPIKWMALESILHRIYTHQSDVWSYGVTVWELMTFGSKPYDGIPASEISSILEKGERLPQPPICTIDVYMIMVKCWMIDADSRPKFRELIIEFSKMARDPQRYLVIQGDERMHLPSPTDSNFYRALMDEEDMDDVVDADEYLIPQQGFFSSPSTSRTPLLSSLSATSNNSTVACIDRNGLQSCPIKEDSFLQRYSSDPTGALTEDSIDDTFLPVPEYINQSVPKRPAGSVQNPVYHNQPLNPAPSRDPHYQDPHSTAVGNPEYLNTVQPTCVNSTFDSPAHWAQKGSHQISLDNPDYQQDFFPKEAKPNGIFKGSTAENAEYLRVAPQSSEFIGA

| IC50 | Compound |
| --- | --- |
| 21.1 µM | N=C1NC(=O)/C(=C2/CCNC(=O)c3[nH]c(Br)c(Br)c32)N1 |
| 18.5 µM | N=C1NC(=O)/C(=C2/CCNC(=O)c3[nH]cc(Br)c32)N1 |
| 10.6 µM | COc1ccc(Cc2nc(-c3cc(Br)c(OCCCN(C)C)c(Br)c3)c[nH]c2=O)cc1Br [Ma'edamine A] |
| 37.9 µM | N=C1N=C(NCCS(=O)(=O)O)/C(=C/C(O)CNC(=O)c2cc(Br)c(Br)[nH]2)N1 (centres undefined) [TAUROACIDIN A] |
